Measurements from ChEMBL document CHEMBL3102762, “A "natural" approach: synthesis and cytoxicity of monodesmosidic glycyrrhetinic acid glycosides” (Eur J Med Chem, 2014).
Active and inactive are the calls of the source. The rule behind the calls is not given here.

Assays:
[1] = Cytotoxicity against human Lipo cells by SRB assay; format: functional, cell-based
MCF7 [2] = experiment: Cytotoxicity against human MCF7 cells by SRB assay; format: functional, cell-based
A549 = experiment: Induction of apoptosis in human A549 cells by acridine orange/ethidium bromide staining; format: functional, cell-based
[3] = Cytotoxicity against human A253 cells by SRB assay; format: functional, cell-based
[4] = Cytotoxicity against human DLD1 cells by SRB assay; format: functional, cell-based; details: DLD-1
NIH3T3 = experiment: Cytotoxicity against mouse NIH/3T3 cells by SRB assay; format: cell-based
[5] = Cytotoxicity against human SW1736 cells by SRB assay; format: functional, cell-based; details: SW-1736
MCF7 [6] = experiment: Induction of apoptosis in human MCF7 cells at 30 uM by acridine orange/ethidium bromide staining; format: functional, cell-based
8505C = experiment: Cytotoxicity against human 8505C cells by SRB assay; format: functional, cell-based
[7] = Cytotoxicity against human 518A2 cells by SRB assay; format: functional, cell-based
MCF7 [8] = experiment: Induction of apoptosis in human MCF7 cells at 20 uM by acridine orange/ethidium bromide staining; format: functional, cell-based
MCF7 [9] = experiment: Induction of apoptosis in human MCF7 cells at 12 uM by acridine orange/ethidium bromide staining; format: functional, cell-based
MCF7 [10] = experiment: Induction of apoptosis in human MCF7 cells at 40 uM by acridine orange/ethidium bromide staining; format: functional, cell-based

SMILES | IC50 [1] | IC50 (MCF7 [2]) | Activity (A549) | IC50 [3] | IC50 [4] | IC50 (NIH3T3) | IC50 [5] | Activity (MCF7 [6]) | IC50 (8505C) | IC50 [7] | Activity (MCF7 [8]) | Activity (MCF7 [9]) | Activity (MCF7 [10])
COC(=O)[C@@]1(C)CC[C@]2(C)CC[C@]3(C)C(=CC(=O)[C@@H]4[C@@]5(C)CC[C@H](O[C@@H]6O[C@@H](C)[C@H](O)[C@@H](O)[C@H]6O)C(C)(C)[C@@H]5CC[C@]43C)[C@@H]2C1 | > 30 µM | 19.6 µM | Active | > 30 µM | > 30 µM | > 30 µM | > 30 µM | Active | > 30 µM | > 30 µM | – | – | –
COC(=O)[C@@]1(C)CC[C@]2(C)CC[C@]3(C)C(=CC(=O)[C@@H]4[C@@]5(C)CC[C@H](O[C@@H]6OC[C@H](O)[C@H](O)[C@H]6O)C(C)(C)[C@@H]5CC[C@]43C)[C@@H]2C1 | > 30 µM | 16.7 µM | Active | > 30 µM | > 30 µM | > 30 µM | > 30 µM | – | > 30 µM | > 30 µM | Active | – | –
COC(=O)[C@@]1(C)CC[C@]2(C)CC[C@]3(C)C(=CC(=O)[C@@H]4[C@@]5(C)CC[C@H](O[C@H]6O[C@H](CO)[C@@H](O)[C@H](O)[C@@H]6O)C(C)(C)[C@@H]5CC[C@]43C)[C@@H]2C1 | > 30 µM | 9.48 µM | Active | 13.2 µM | > 30 µM | > 30 µM | 11.2 µM | – | 22 µM | 25.9 µM | – | Active | –
COC(=O)[C@@]1(C)CC[C@]2(C)CC[C@]3(C)C(=CC(=O)[C@@H]4[C@@]5(C)CC[C@H](O[C@H]6OC[C@@H](O)[C@@H](O)[C@@H]6O)C(C)(C)[C@@H]5CC[C@]43C)[C@@H]2C1 | > 30 µM | > 30 µM | Active | > 30 µM | > 30 µM | > 30 µM | > 30 µM | – | > 30 µM | > 30 µM | – | – | Active
COC(=O)[C@@]1(C)CC[C@]2(C)CC[C@]3(C)C(=CC(=O)[C@@H]4[C@@]5(C)CC[C@H](O[C@H]6O[C@@H](C)[C@H](O)[C@@H](O)[C@H]6O)C(C)(C)[C@@H]5CC[C@]43C)[C@@H]2C1 | 28.4 µM | > 30 µM | Active | 27.2 µM | > 30 µM | > 30 µM | 23.9 µM | – | > 30 µM | 28.9 µM | – | – | Active
COC(=O)[C@@]1(C)CC[C@]2(C)CC[C@]3(C)C(=CC(=O)[C@@H]4[C@@]5(C)CC[C@H](O)C(C)(C)[C@@H]5CC[C@]43C)[C@@H]2C1 | – | – | Active | – | – | – | – | Active | – | – | – | – | –
COC(=O)[C@@]1(C)CC[C@]2(C)CC[C@]3(C)C(=CC(=O)[C@@H]4[C@@]5(C)CC[C@H](O[C@@H]6O[C@H](CO)[C@H](O)[C@H](O)[C@H]6O)C(C)(C)[C@@H]5CC[C@]43C)[C@@H]2C1 | 23.2 µM | 20.1 µM | Active | 19.7 µM | 23.2 µM | 23.4 µM | 21.4 µM | Active | 22.8 µM | 23.3 µM | – | – | –
COC(=O)[C@@]1(C)CC[C@]2(C)CC[C@]3(C)C(=CC(=O)[C@@H]4[C@@]5(C)CC[C@H](O[C@@H]6OC[C@@H](O)[C@H](O)[C@H]6O)C(C)(C)[C@@H]5CC[C@]43C)[C@@H]2C1 | > 30 µM | > 30 µM | Active | > 30 µM | > 30 µM | > 30 µM | > 30 µM | – | > 30 µM | > 30 µM | – | – | Active
